Measurements taken from PMC4893628, “Chalcone-based Selective Inhibitors of a C4 Plant Key Enzyme as Novel Potential Herbicides” (Scientific Reports, 2016).
Like-named read-outs stand apart in the source and are kept apart here.

Assays:
[1] = system: Amaranthus retroflexus; experiment: In planta growth experiment, A. retroflexus; format: in vivo; details: shoots sprayed, 3 mM
Description: Seeds of Amaranthus retroflexus L. (Herbiseed, Twyford, UK) and Brassica napus L. cv. Mozart (Norddeutsche Pflanzenzucht Hans-Georg Lembke KG, Holtsee, Germany) were sown in vermiculite for germination. When cotyledons were fully expanded, seedlings were transplanted into plastic pots with a volume of 0.230 L filled with a substrate containing 50% bottom ash (0–4 mm), 30% peat and 20% pumice gravel (0–4 mm). Plants were watered every other day with 0.03% Hakaphos® Grün solution (Compo Expert GmbH, Münster, Germany) by sub-irrigation. Plants were grown in a climate chamber at 22 °C/20 °C day/night temperature and a day/night length of 16 h/8 h. Relative humidity was adjusted to 70% and light intensity was 320 μmol m^−2 s^−1 PAR (Photosynthetically Active Radiation) at plant level.
When seedlings reached the two-leaf growth stage, plant shoots were sprayed from the top with treatment solutions using spray bottles with a spraying angle of 35° (10 ml, neoLab Migge Laborbedarf-Vertriebs GmbH, Heidelberg, Germany). Treatment solutions were applied from a height of 8.5 cm above the pots. Each pot was sprayed once with a solution volume of 0.135 ml. Treatment solutions contained 2.4% (v/v) DMSO (dimethylsulfoxide, Duchefa Biochemie, Haarlem, the Netherlands), 0.1% (v/v) Tween® and the respective compound at a concentration of 3 mM. The control treatment contained 2.4% (v/v) DMSO, and 0.1% (v/v) Tween20. Further details are given in the Supplementary Information. […]
Experimental design and assessments of in planta experiments
We tested eleven compounds in a first experiment. In a follow-up experiment we tested selected […]
chalcone. Each treatment was repeated 12 times, except for oilseed rape in the second experiment (n=10). Pots were arranged in the growth chamber according to a fully randomized design. Initial growth of the second leaf of A. retroflexus plants was monitored by aquiring images of each plant from above from day zero to day two after treatment. Images were taken […]
from a fixed distance at 90° view angle using the camera Canon EOS 70D equipped with a Canon EF 14 mm/2.8 L II USM lens. Leaf area of single leaves was measured using the ImageJ software31, by drawing the leaf contours using a drawing tablet (Cintiq 22HD, Wacom Europe GmbH, Krefeld, Germany). Conversion of pixel to cm was achieved by using a target of known size inside the image. Six days after the treatment, half of the plants were harvested. Leaf area was assessed using a leaf area meter (LI3100C Area Meter, LI-Cor, Lincoln, Nebraska, USA) and samples were oven-dried at 65°C for seven days to obtain dry weight . Thirteen days after the treatment, this procedure was repeated with the second half of plants.
Chlorophyll fluorescence measurements […]
6 mm leaf discs were cut out of the second leaf and immediately placed into 96-well-plates filled with 300 µL 0.125 % Hoagland’s solution with 1 mM MES-KOH (MES-monohydrate, Merck, Darmstadt, Germany) buffered to a pH of 6.5. The treatment solution contained 1.6 % (v/v) DMSO, 0.1 % (v/v) Tween® 20 and 2',3',4',3,4-Pentahydroxychalcone at a concentration of 2 mM. The control treatment contained 1.6 % (v/v) DMSO, 0.1 % (v/v) Tween® 20. Each leaf disc was treated with 1.5 µL solution placed on top of the leaf discs. Plates were sealed with Parafilm and placed into a climate cabinet with 12h/12h day/night-length and a temperature of 22°C at a light intensity of 130 µmol m-2 s-1. 96 hours after treatment, chlorophyll fluorescence measurements were performed on leaf discs using an Imaging PAM M-Series fluorescence camera (Heinz Walz GmbH, Effeltrich, Germany). Leaf discs were dark adapted for 30 minutes, minimum and maximum chlorophyll fluorescence were obtained and leaf discs were illuminated for 30 minutes

[2] = system: Pseudomonas putida KT2440; experiment: Bacterial growth in microscale cultivation, P. putida; format: cell-based; details: for activity at 4 µM / activity at 40 µM / activity at 400 µM: Pseudomonas putida; for activity at 4 µM / activity at 40 µM / activity at 400 µM / Lag Phase: relative to control
Procedure: (§1) The following bacteria were cultivated in the presence of trans-chalcone derived inhibitors: Corynebacterium glutamicum ATCC13032[43], Escherichia coli K-12 MG1655[44], Pseudomonas putida KT2440[45], and Bacillus subtilis 168[46]. The growth of these bacteria was monitored in flower-well plates shaken at 1200 rpm as backscatter at 620 nm (gain 20) using a BioLector® microscale cultivation system (m2p labs, Baesweiler, Germany). For further experimental details please refer to the Supplementary Information.
(§2) medium or the appropriate minimal medium and shaken at 140 rpm overnight. For inoculation of
(§3) the main culture, cells equivalent to an optical density at 600 nm of 0.5 (C. glutamicum, E. coli,
(§4) and P. putida) or 0.25 (B. subtilis) in 800 µL medium were washed and resuspended in fresh
(§5) media. Inhibitor substances were dissolved in DMSO and added to the media to a final
(§6) Since the least polar trans-chalcone and 2’-hydroxychalcone precipitated in the growth media at
(§7) the highest concentrations, the maximal concentration of these compounds was reduced to 400
(§8) µM and 100 µM, respectively. The final backscatter at 620 nm, the growth rate (h-1), and the
(§9) duration of the lag phase of all cultures were determined in a BioLector microscale cultivation
(§10) system in comparison to negative controls supplemented with the solvent DMSO. A longer lag

[3] = system: Bacillus subtilis 168; experiment: Bacterial growth in microscale cultivation, B. subtilis; format: cell-based; details: for activity at 4 µM / activity at 40 µM / activity at 120 µM / activity at 400 µM / Lag Phase: relative to control; for Influence on bacterial growth: highest concentration tested (10× IC50) if not stated otherwise
Procedure: as §1, §2, §3, §4, §5, §6, §7, §8, §9, §10

[4] = KT2440, complex medium, 4 µM, read-out: Final Backscatter
[5] = KT2440, complex medium, 4 µM, read-out: Growth rate
[6] = KT2440, complex medium, 40 µM, read-out: Final Backscatter
[7] = KT2440, complex medium, 40 µM, read-out: Growth rate
[8] = KT2440, complex medium, 400 µM, read-out: Final Backscatter
[9] = KT2440, complex medium, 400 µM, read-out: Growth rate
[10] = KT2440, minimal medium, 4 µM, read-out: Final Backscatter
[11] = KT2440, minimal medium, 4 µM, read-out: Growth rate
[12] = KT2440, minimal medium, 40 µM, read-out: Final Backscatter
[13] = KT2440, minimal medium, 40 µM, read-out: Growth rate
[14] = KT2440, minimal medium, 400 µM, read-out: Final Backscatter
[15] = KT2440, minimal medium, 400 µM, read-out: Growth rate
[16] = Bacillus subtilis, 168, complex medium, 4 µM, read-out: Final Backscatter
[17] = Bacillus subtilis, 168, complex medium, 4 µM, read-out: Growth rate
[18] = Bacillus subtilis, 168, complex medium, 40 µM, read-out: Final Backscatter
[19] = Bacillus subtilis, 168, complex medium, 40 µM, read-out: Growth rate
[20] = Bacillus subtilis, 168, complex medium, 400 µM, read-out: Final Backscatter
[21] = Bacillus subtilis, 168, complex medium, 400 µM, read-out: Growth rate
[22] = Bacillus subtilis, 168, minimal medium, 4 µM, read-out: Final Backscatter
[23] = Bacillus subtilis, 168, minimal medium, 4 µM, read-out: Growth rate
[24] = Bacillus subtilis, 168, minimal medium, 40 µM, read-out: Final Backscatter
[25] = Bacillus subtilis, 168, minimal medium, 40 µM, read-out: Growth rate
[26] = Bacillus subtilis, 168, minimal medium, 400 µM, read-out: Final Backscatter
[27] = Bacillus subtilis, 168, minimal medium, 400 µM, read-out: Growth rate

Compound: O=C(/C=C/c1ccc(O)cc1)c1ccccc1O [Compound 3, 2′,4-Dihydroxychalcone]
- Influence on plants [1]: No
- activity at 4 µM [2, 4]: 99.6%
- activity at 4 µM [2, 5]: 103%
- activity at 40 µM [2, 6]: 103%
- activity at 40 µM [2, 7]: 106%
- activity at 400 µM [2, 8]: 99.5%
- activity at 400 µM [2, 9]: 108%
- activity at 4 µM [2, 10]: 97.4%
- activity at 4 µM [2, 11]: 95.3%
- activity at 40 µM [2, 12]: 101%
- activity at 40 µM [2, 13]: 97.1%
- activity at 400 µM [2, 14]: 110%
- activity at 400 µM [2, 15]: 106%
- Lag Phase ([2]; complex medium, 4 µM): 97,7%
- Lag Phase ([2]; complex medium, 40 µM): 98,5%
- Lag Phase ([2]; complex medium, 400 µM): 98,5%
- Lag Phase ([2]; minimal medium, 4 µM): 102,8%
- Lag Phase ([2]; minimal medium, 40 µM): 101,6%
- Lag Phase ([2]; minimal medium, 400 µM): 103,2%
- activity at 4 µM [3, 16]: 95.2%
- activity at 4 µM [3, 17]: 99.5%
- activity at 40 µM [3, 18]: 97.1%
- activity at 40 µM [3, 19]: 108%
- activity at 120 µM ([3]; Bacillus subtilis, 168, complex medium, 120 µM, read-out: Final Backscatter): 102%
- activity at 120 µM ([3]; Bacillus subtilis, 168, complex medium, 120 µM, read-out: Growth rate): 114%
- activity at 400 µM [3, 20]: 91.6%
- activity at 400 µM [3, 21]: 92.8%
- activity at 4 µM [3, 22]: 101%
- activity at 4 µM [3, 23]: 130%
- activity at 40 µM [3, 24]: 99.1%
- activity at 40 µM [3, 25]: 119%
- activity at 120 µM ([3]; Bacillus subtilis, 168, minimal medium, 120 µM, read-out: Final Backscatter): 100%
- activity at 120 µM ([3]; Bacillus subtilis, 168, minimal medium, 120 µM, read-out: Growth rate): 115%
- activity at 400 µM [3, 26]: 102%
- activity at 400 µM [3, 27]: 113%
- Lag Phase ([3]; complex medium, 4 µM): 105,7%
- Lag Phase ([3]; complex medium, 40 µM): 105,7%
- Lag Phase ([3]; complex medium, 120 µM): 125,5%
- Lag Phase ([3]; complex medium, 400 µM): 151,3%
- Lag Phase ([3]; minimal medium, 4 µM): 99,0%
- Lag Phase ([3]; minimal medium, 40 µM): 101,0%
- Lag Phase ([3]; minimal medium, 120 µM): 111,3%
- Lag Phase ([3]; minimal medium, 400 µM): 151,4%

Compound: O=C(/C=C/c1ccccc1)c1ccc(O)cc1O [Compound 4, 2′,4′-Dihydroxychalcone]
- Influence on plants [1]: No
- lag phase ([2]; 400 μM): slight increase in the lag phase
- activity at 4 µM [2, 4]: 97.8%
- activity at 4 µM [2, 5]: 101%
- activity at 40 µM [2, 6]: 102%
- activity at 40 µM [2, 7]: 100%
- activity at 400 µM [2, 8]: 100%
- activity at 400 µM [2, 9]: 101%
- activity at 4 µM [2, 10]: 102%
- activity at 4 µM [2, 11]: 94.1%
- activity at 40 µM [2, 12]: 102%
- activity at 40 µM [2, 13]: 98.3%
- activity at 400 µM [2, 14]: 107%
- activity at 400 µM [2, 15]: 93.9%
- Lag Phase ([2]; complex medium, 4 µM): 105,0%
- Lag Phase ([2]; complex medium, 40 µM): 106,6%
- Lag Phase ([2]; complex medium, 400 µM): 123,2%
- Lag Phase ([2]; minimal medium, 4 µM): 108,7%
- Lag Phase ([2]; minimal medium, 40 µM): 108,3%
- Lag Phase ([2]; minimal medium, 400 µM): 97,7%
- activity at 4 µM [3, 16]: 92.2%
- activity at 4 µM [3, 17]: 128%
- activity at 40 µM [3, 18]: 94.3%
- activity at 40 µM [3, 19]: 97.4%
- activity at 400 µM [3, 20]: 81.5%
- activity at 400 µM [3, 21]: 92.7%
- activity at 4 µM [3, 22]: 96.6%
- activity at 4 µM [3, 23]: 91.5%
- activity at 40 µM [3, 24]: 95.7%
- activity at 40 µM [3, 25]: 108%
- activity at 400 µM [3, 26]: 77.3%
- activity at 400 µM [3, 27]: 75.2%
- Influence on bacterial growth ([3]; Complex medium): fbs↓ lag↑
- Influence on bacterial growth ([3]; Minimal medium): fbs↓, lag↑
- Lag Phase ([3]; complex medium, 4 µM): 107,7%
- Lag Phase ([3]; complex medium, 40 µM): 107,7%
- Lag Phase ([3]; complex medium, 400 µM): 166,5%
- Lag Phase ([3]; minimal medium, 4 µM): 97,7%
- Lag Phase ([3]; minimal medium, 40 µM): 100,0%
- Lag Phase ([3]; minimal medium, 400 µM): 129,1%
